For 22 compounds, IC50 and Ki results are on record in ChEMBL document CHEMBL1909046, “DrugMatrix in vitro pharmacology data”.

As usually defined, the pIC50 is the IC50 on a negative log10 scale, so that one unit is a factor of ten.

The nature of assay [1]: DRUGMATRIX: Sodium/nucleoside co-transporter radioligand binding (ligand: nitrobenzylthioinosine). The class given is cell membranes, Cavia porcellus, Dunkin-Hartley, Cerebral cortex, Membrane. As to conditions: Not Active = under 50% inhibition at 10 µM.
The target of assay [2] is Aldo-keto reductase family 1 member B1 (Rattus norvegicus, UniProt P07943). Put plainly: biochemical. The class given is tissue-based, Lens of camera-type eye. As to conditions: for pIC50: read-out: IC50.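 On all read-outs here: inhibition of aldose reductase enzyme activity, measured with DL-glyceraldehyde as the substrate; in other assays of this panel Not Active means under 50% inhibition at 10 µM.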
Assay [3] concerns the target Vasopressin V1a receptor (Homo sapiens, UniProt P37288). The class given is cell membranes, Membrane. The note with it: hek293. Further: in other assays of this panel Not Active means under 50% inhibition at 10 µM.
A short description of assay [4]: DRUGMATRIX: GABAA, Chloride Channel, TBOB radioligand binding (ligand: [3H] TBOB). The class given is cell membranes, Rattus norvegicus, Wistar, Cerebral cortex, Membrane. As to conditions: Not Active = under 50% inhibition at 10 µM.
The target of assay [5] is T1, Muscarinic acetylcholine receptor M5 (Homo sapiens, UniProt P08912). Further: in other assays of this panel Not Active means under 50% inhibition at 10 µM.
T1 sequence (P08912 whole entry): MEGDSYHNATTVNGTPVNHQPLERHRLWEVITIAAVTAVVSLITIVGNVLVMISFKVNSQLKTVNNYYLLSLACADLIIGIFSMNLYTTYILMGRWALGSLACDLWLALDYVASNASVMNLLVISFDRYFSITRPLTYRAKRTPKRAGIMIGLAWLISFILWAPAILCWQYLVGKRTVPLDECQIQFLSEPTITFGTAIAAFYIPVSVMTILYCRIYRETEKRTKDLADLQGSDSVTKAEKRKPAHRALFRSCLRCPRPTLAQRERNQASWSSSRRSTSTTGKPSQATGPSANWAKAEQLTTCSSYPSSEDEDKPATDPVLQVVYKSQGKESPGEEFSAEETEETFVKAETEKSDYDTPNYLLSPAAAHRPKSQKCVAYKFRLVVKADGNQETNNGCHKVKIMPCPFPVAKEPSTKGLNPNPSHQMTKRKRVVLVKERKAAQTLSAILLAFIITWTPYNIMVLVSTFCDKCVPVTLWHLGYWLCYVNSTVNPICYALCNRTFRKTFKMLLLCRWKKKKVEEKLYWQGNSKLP
The format is cell membranes, CHO-K1, Membrane. As to conditions: cho-k1.

The target in assay [6] is Nitric oxide synthase 1 (Rattus norvegicus, UniProt P29476). The format is tissue-based, Cerebellum. Further: in other assays of this panel Not Active means under 50% inhibition at 10 µM.
Chain of Nitric oxide synthase 1 (P29476 whole entry): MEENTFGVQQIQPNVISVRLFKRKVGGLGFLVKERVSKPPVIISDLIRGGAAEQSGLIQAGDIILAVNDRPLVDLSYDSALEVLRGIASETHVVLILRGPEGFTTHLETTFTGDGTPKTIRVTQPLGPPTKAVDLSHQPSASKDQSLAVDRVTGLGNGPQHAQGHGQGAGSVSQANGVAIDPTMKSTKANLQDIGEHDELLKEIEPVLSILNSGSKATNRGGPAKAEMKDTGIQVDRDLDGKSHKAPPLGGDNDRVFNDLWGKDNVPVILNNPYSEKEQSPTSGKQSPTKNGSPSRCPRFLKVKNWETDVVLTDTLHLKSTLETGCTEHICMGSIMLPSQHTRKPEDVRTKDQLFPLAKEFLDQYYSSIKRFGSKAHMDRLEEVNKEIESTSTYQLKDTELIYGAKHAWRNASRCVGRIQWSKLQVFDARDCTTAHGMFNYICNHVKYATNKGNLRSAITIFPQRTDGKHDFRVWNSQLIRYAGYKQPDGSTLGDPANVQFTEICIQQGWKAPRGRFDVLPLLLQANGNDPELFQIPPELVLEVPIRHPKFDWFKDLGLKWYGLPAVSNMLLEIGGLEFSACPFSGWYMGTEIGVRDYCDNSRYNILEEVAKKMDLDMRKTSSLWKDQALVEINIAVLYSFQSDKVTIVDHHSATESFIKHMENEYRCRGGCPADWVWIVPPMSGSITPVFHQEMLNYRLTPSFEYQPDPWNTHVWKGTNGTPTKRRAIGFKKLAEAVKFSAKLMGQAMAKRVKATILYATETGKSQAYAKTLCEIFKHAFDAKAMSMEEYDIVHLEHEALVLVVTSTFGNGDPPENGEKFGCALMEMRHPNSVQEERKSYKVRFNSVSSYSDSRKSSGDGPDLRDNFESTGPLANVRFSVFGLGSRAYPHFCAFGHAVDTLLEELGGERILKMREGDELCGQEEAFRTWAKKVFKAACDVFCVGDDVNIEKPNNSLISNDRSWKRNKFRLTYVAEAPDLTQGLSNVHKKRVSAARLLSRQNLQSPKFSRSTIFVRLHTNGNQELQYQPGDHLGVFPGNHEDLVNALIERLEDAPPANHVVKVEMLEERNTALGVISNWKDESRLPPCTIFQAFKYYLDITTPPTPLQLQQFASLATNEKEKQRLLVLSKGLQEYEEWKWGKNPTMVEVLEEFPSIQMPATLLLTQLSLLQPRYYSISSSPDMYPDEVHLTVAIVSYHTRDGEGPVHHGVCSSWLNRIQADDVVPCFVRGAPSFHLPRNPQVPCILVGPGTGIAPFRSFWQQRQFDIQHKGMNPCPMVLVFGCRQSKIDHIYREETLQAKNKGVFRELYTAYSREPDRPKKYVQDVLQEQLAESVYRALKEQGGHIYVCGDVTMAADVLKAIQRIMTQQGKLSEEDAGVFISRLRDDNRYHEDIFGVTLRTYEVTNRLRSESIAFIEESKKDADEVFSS

pIC50: −log10 of the molar value.

Chain of Vasopressin V1a receptor (P37288 whole entry): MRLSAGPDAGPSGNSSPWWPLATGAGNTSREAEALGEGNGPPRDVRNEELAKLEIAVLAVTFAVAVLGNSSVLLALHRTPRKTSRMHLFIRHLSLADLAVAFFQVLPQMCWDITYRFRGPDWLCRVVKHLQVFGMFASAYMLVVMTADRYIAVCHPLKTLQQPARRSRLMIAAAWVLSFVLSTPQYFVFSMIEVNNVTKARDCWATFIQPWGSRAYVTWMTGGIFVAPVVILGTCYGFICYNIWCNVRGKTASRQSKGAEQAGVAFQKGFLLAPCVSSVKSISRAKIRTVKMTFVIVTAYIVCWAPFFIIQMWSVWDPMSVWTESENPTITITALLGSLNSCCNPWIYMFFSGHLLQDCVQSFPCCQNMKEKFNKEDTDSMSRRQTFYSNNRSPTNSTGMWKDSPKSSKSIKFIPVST

For the compound `CC[C@H](C)C(=O)O[C@H]1CCC=C2C=C[C@H](C)[C@H](CC[C@@H]3C[C@@H](O)CC(=O)O3)[C@H]21` [MEVASTATIN], the IC50 entry in assay [1], in assay [2], in assay [3], in assay [4], in assay [5] and in assay [6] was “Not Active” in each case. Besides, the Ki entry in assay [1] and in assay [4] was “Not Active” each time.
In the case of `O=C(OC[C@H]1O[C@@H](OC(=O)c2cc(O)c(O)c(OC(=O)c3cc(O)c(O)c(O)c3)c2)[C@H](OC(=O)c2cc(O)c(O)c(OC(=O)c3cc(O)c(O)c(O)c3)c2)[C@@H](OC(=O)c2cc(O)c(O)c(OC(=O)c3cc(O)c(O)c(O)c3)c2)[C@@H]1OC(=O)c1cc(O)c(O)c(OC(=O)c2cc(O)c(O)c(O)c2)c1)c1cc(O)c(O)c(OC(=O)c2cc(O)c(O)c(O)c2)c1` [TANNIC ACID], the IC50 result in assay [1], in assay [3], in assay [4], in assay [5] and in assay [6] was “Not Active” throughout. In addition, the Ki result in assay [1] and in assay [4] was “Not Active” each time. Also, the pIC50 in assay [2] is 6.46.
For LEAD(IV) ACETATE, the IC50 entry in assay [1], in assay [2], in assay [3], in assay [4], in assay [5] and in assay [6] was “Not Active” throughout. For the same compound, the Ki entry in assay [1], in assay [2], in assay [3], in assay [4], in assay [5] and in assay [6] was “Not Active” in each case.
`CC#C[C@]1(O)CC[C@H]2[C@@H]3CCC4=CC(=O)CCC4=C3[C@@H](c3ccc(N(C)C)cc3)C[C@@]21C` [MIFEPRISTONE]: the IC50 entry in assay [1], in assay [2], in assay [3], in assay [4], in assay [5] and in assay [6] was “Not Active” in each case. Further, the Ki entry in assay [1] and in assay [4] was “Not Active” each time.
As to `Cc1[nH]c(=O)c(C#N)cc1-c1ccncc1` [MILRINONE], the IC50 entry in assay [1], in assay [2], in assay [3], in assay [4], in assay [5] and in assay [6] was “Not Active” in each case. Also, the Ki entry in assay [1] and in assay [4] was “Not Active” each time.
For the compound `CCN(CC)N=O` [N-NITROSODIETHYLAMINE], the IC50 result in assay [1], in assay [2], in assay [3], in assay [4], in assay [5] and in assay [6] was “Not Active” each time. Moreover, the Ki entry in assay [1] and in assay [4] was “Not Active” each time.
Regarding `Cc1ccc(S(=O)(=O)NC(=O)NN2CCCCCC2)cc1` [TOLAZAMIDE], the IC50 entry in assay [1], in assay [2], in assay [3], in assay [4], in assay [5] and in assay [6] was “Not Active” throughout. Besides, the Ki result in assay [1] and in assay [4] was “Not Active” in each case.
For `CC(O)C(=O)O` (stereo not given) [LACTIC ACID], the IC50 result in assay [1], in assay [2], in assay [3], in assay [4], in assay [5] and in assay [6] was “Not Active” in each case. For the same compound, the Ki entry in assay [1] and in assay [4] was “Not Active” throughout.
In the case of `CS(=O)(=O)c1ccc(C2=C(c3ccccc3)C(=O)OC2)cc1` [ROFECOXIB], the IC50 result in assay [1], in assay [2], in assay [3], in assay [4], in assay [5] and in assay [6] was “Not Active” each time. The Ki entry in assay [1] and in assay [4] was “Not Active” throughout.
`CCOC(=O)C1=C(C)NC(C)=C(C(=O)OCC)C1c1ccccc1/C=C/C(=O)OC(C)(C)C` [LACIDIPINE]: the IC50 result in assay [1], in assay [2], in assay [3], in assay [4], in assay [5] and in assay [6] was “Not Active” each time. Moreover, the Ki entry in assay [1] and in assay [4] was “Not Active” each time.
On to `CC(N)C12CC3CC(CC(C3)C1)C2` (stereo not given) [RIMANTADINE], for which the IC50 entry in assay [1], in assay [2], in assay [3], in assay [4], in assay [5] and in assay [6] was “Not Active” each time. The Ki entry in assay [1] and in assay [4] was “Not Active” each time.
In the case of `CC(Cl)(Cl)Cl` [TRICHLOROETHANE], the IC50 result in assay [1], in assay [2], in assay [3], in assay [4], in assay [5] and in assay [6] was “Not Active” in each case. For the same compound, the Ki entry in assay [1] and in assay [4] was “Not Active” each time.
In the case of `O=C(O)c1cc(/N=N/c2ccc(S(=O)(=O)Nc3ccccn3)cc2)ccc1O` [SULFASALAZINE], the IC50 entry in assay [1], in assay [3], in assay [4], in assay [5] and in assay [6] was “Not Active” throughout. In addition, the Ki entry in assay [1] and in assay [4] was “Not Active” each time. Also, the negative logarithm of the IC50 (pIC50) in assay [2] was 4.77.
Consider `Cc1cccc(C)c1NC(=O)C(C)N` (stereo not given) [TOCAINIDE], for which the IC50 entry in assay [1], in assay [2], in assay [3], in assay [4], in assay [5] and in assay [6] was “Not Active” throughout. In addition, the Ki entry in assay [1] and in assay [4] was “Not Active” each time.
Consider `CO[C@@]12[C@H](COC(N)=O)C3=C(C(=O)C(C)=C(N)C3=O)N1C[C@@H]1N[C@@H]12` [MITOMYCIN], for which the IC50 entry in assay [1], in assay [2], in assay [3], in assay [4], in assay [5] and in assay [6] was “Not Active” in each case. Besides, the Ki entry in assay [1] and in assay [4] was “Not Active” each time.
As to `Nc1nc(N)c2nc(-c3ccccc3)c(N)nc2n1`, the IC50 result in assay [1], in assay [2], in assay [3], in assay [4], in assay [5] and in assay [6] was “Not Active” each time. For the same compound, the Ki entry in assay [1] and in assay [4] was “Not Active” throughout.
`CC1=C(/C=C/C(C)=C/C=C/C(C)=C/C(=O)O)C(C)(C)CCC1` [TRETINOIN]: the IC50 result in assay [1], in assay [2], in assay [3], in assay [4], in assay [5] and in assay [6] was “Not Active” throughout. Further, the Ki result in assay [1] and in assay [4] was “Not Active” throughout.
With `CC[C@@]1(O)C(=O)OCc2c1cc1n(c2=O)Cc2cc3c(CN(C)C)c(O)ccc3nc2-1` [TOPOTECAN], the IC50 result in assay [1], in assay [2], in assay [3], in assay [4], in assay [5] and in assay [6] was “Not Active” in each case. The Ki result in assay [1] and in assay [4] was “Not Active” throughout.
With `Cc1ccc(Cl)c(Nc2ccccc2C(=O)O)c1Cl` [MECLOFENAMIC ACID], the IC50 result in assay [1], in assay [2], in assay [3], in assay [4], in assay [5] and in assay [6] was “Not Active” in each case. Besides, the Ki result in assay [1] and in assay [4] was “Not Active” in each case.
As to `CCOc1cc(N)c(Cl)cc1C(=O)NCC1CN(Cc2ccc(F)cc2)CCO1` (stereo not given) [MOSAPRIDE], the IC50 result in assay [1], in assay [2], in assay [3], in assay [4], in assay [5] and in assay [6] was “Not Active” in each case. Further, the Ki entry in assay [1] and in assay [4] was “Not Active” throughout.
On to `CN1C[C@H](CNC(=O)OCc2ccccc2)C[C@@H]2c3cccc4c3c(cn4C)C[C@H]21` [METERGOLINE], for which the IC50 result in assay [1], in assay [2], in assay [3], in assay [4], in assay [5] and in assay [6] was “Not Active” each time. Besides, the Ki entry in assay [1] and in assay [4] was “Not Active” in each case.
With `C1CCN2C[C@@H]3C[C@@H](CN4CCCC[C@@H]34)[C@H]2C1` [SPARTEINE], the IC50 entry in assay [1], in assay [2], in assay [3], in assay [4], in assay [5] and in assay [6] was “Not Active” in each case. For the same compound, the Ki entry in assay [1] and in assay [4] was “Not Active” each time.
